# According to patent US12404265B2, “Substituted pyridine derivatives as SARM1 inhibitors” (Nura Bio, Inc., priority 2020, dated 2025):
# Target: T1, human SARM1(50-724) (Homo sapiens, UniProt Q6SZW1)
# T1 construct: 40 nM human SARM1(50-724)
# T1 sequence (Q6SZW1 50-724): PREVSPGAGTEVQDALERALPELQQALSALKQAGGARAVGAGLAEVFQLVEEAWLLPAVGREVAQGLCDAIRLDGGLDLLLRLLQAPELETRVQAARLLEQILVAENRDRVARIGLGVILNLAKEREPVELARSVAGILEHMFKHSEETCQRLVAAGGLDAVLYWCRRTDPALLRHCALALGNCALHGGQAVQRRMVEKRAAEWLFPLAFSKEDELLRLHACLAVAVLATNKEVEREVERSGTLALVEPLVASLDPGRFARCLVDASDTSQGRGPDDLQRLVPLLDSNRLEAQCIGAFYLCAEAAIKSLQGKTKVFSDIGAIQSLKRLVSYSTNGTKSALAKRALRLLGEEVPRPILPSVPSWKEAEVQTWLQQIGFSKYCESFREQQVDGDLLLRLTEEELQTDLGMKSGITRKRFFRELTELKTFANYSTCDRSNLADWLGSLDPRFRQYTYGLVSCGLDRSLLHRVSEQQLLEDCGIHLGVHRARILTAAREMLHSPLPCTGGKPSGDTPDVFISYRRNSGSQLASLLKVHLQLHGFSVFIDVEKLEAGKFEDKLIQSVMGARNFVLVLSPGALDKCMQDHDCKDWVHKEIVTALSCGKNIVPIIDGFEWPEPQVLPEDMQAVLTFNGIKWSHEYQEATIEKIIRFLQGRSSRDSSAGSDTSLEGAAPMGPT
# Assay: SARM1 NADase biochemical assay (HPLC of NAD and NAM)
# Settings: 40 nM human SARM1(50-724), 0.3 mM NMN, 20 μM NAD, 60 minutes room temperature; dose-response from 100 μM, 1:3 dilution
# Procedure: Each reaction was run at a volume of 20 μL containing 50 μM compound (dissolved in DMSO; final concentration of DMSO is 1% v/v), 40 nM human SARM1(50-724), 0.3 mM NMN, 20 μM NAD, 1 mM TCEP, 25 mM HEPES pH 7.4, 10 mM KCl and 10 mM MgCl2. The reaction was incubated at room temperature for 60 minutes and quenched with 20 μL of 0.4% formic acid. The samples were run on Agilent HPLC 1260 Infinity II with Synergi 2.5 μM Fusion-RP 100 Å (100×3.0 mm) LC column from Phenomenex. Total run time for each sample was 4 minutes. The run was isocratic with 1.5% methanol in 40 mM ammonium acetate pH 6.0. Samples were run at a flow rate of 0.8 mL/min at 55° C. Peak areas of NAD and NAM were determined using OpenLAB CDS (Chem Station edition) software. For dose-response, the compound was diluted serially 1:3 in DMSO and added to the reaction starting at a final compound concentration of 100 μM in 1% DMSO.
row,Structure (SMILES),IC50 [nM]
1,Cc1c(NC(=O)CCc2ccc(Cl)nc2)cnn1-c1ccncc1 [Example 82],< 1000
2,"Cc1c(-c2ccncc2)n[nH]c1NC(=O)CCn1cc(Cl)cn1 [Example 77, 3-(4-Chloro-1H-pyrazol-1-yl)-N-(4-methyl-3-(pyridin-4-yl)-1H-pyrazol-5-yl)propenamide]",1000 to 10000
3,"Cc1c(NC(=O)COc2ccc(Cl)cc2)cnn1-c1ccncc1 [Example 85, 2-(4-Chlorophenoxy)-N-(5-methyl-1-(pyridin-4-yl)-1H-pyrazol-4-yl)acetamide]",1000 to 10000
4,"Cc1c(-c2ccncc2)n[nH]c1NC(=O)CCc1ccc(F)nc1 [Example 59, 3-(6-Fluoropyridin-3-yl)-N-(4-methyl-3-(pyridin-4-yl)-1H-pyrazol-5-yl)propanamide]",< 1000
5,"Cc1c(-c2ccncc2)n[nH]c1NC(=O)CCc1ccc(F)c(F)c1F [Example 51, N-(4-Methyl-3-(pyridin-4-yl)-1H-pyrazol-5-yl)-3-(2,3,4-trifluorophenyl)propanamide]",< 1000
6,"Cc1c(-c2ccncc2)n[nH]c1NC(=O)CCc1ccc(Cl)c(F)c1F [Example 49, 3-(4-Chloro-2,3-difluorophenyl)-N-(4-methyl-3-(pyridin-4-yl)-1H-pyrazol-5-yl)propanamide]",< 1000
7,"Cc1c(-c2ccncc2)n[nH]c1NC(=O)CCc1c(F)c(F)c(F)c(F)c1F [Example 58, N-(4-Methyl-3-(pyridin-4-yl)-1H-pyrazol-5-yl)-3-(perfluorophenyl)propanamide]",< 1000
8,"O=C(CCc1cc(F)c(Cl)c(F)c1)Nc1cnn(-c2ccncc2)c1 [Example 88, 3-(4-Chloro-3,5-difluorophenyl)-N-[1-(pyridin-4-yl)-1H-pyrazol-4-yl]propanamide]",< 1000
9,"Cc1c(-c2ccncc2)n[nH]c1NC(=O)CCc1ccc(Cl)cc1F [Example 41, 3-(4-Chloro-2-fluorophenyl)-N-(4-methyl-3-(pyridin-4-yl)-1H-pyrazol-5-yl)propanamide]",< 1000
10,"Cc1c(-c2ccncc2)n[nH]c1N(C(=O)CCc1ccc(Cl)cc1)C(=O)CCc1ccc(Cl)cc1 [Example 3, 3-(4-Chlorophenyl)-N-(3-(4-chlorophenyl)propanoyl)-N-(4-methyl-3-(pyridin-4-yl)-1H-pyrazol-5-yl)propanamide]",< 1000
11,"Cc1c(-c2ccncc2)n[nH]c1NC(=O)CCc1ccc(Cl)cn1 [Example 39, 3-(5-Chloropyridin-2-yl)-N-(4-methyl-3-(pyridin-4-yl)-1H-pyrazol-5-yl)propanamide]",1000 to 10000
12,"Cc1c(-c2ccncc2)n[nH]c1NC(=O)CC1CCCc2cc(Cl)ccc21 (stereo not drawn) [Example 68, 2-(6-Chloro-1,2,3,4-tetrahydronaphthalen-1-yl)-N-[4-methyl-3-(pyridin-4-yl)-1H-pyrazol-5-yl]acetamide]",1000 to 10000
13,"Cc1c(-c2ccncc2)n[nH]c1NC(=O)CCc1ccc(Br)cc1 [Example 35, 3-(4-Bromophenyl)-N-(4-methyl-3-(pyridin-4-yl)-1H-pyrazol-5-yl)propanamide]",< 1000
14,"Cc1c(-c2ccncc2)n[nH]c1NC(=O)CCc1cc(F)c(Cl)cc1F [Example 40, 3-(4-Chloro-2,5-difluorophenyl)-N-(4-methyl-3-(pyridin-4-yl)-1H-pyrazol-5-yl)propanamide]",< 1000
15,"Cc1c(-c2ccncc2)n[nH]c1NC(=O)C#Cc1ccc(Cl)cc1 [Example 72, 3-(4-Chlorophenyl)-N-(4-methyl-3-(pyridin-4-yl)-1H-pyrazol-5-yl)propiolamide]",1000 to 10000
16,"Cc1c(-c2ccncc2)n[nH]c1NC(=O)CCc1cc(F)c(Cl)c(F)c1 [Example 48, 3-(4-Chloro-3,5-difluorophenyl)-N-(4-methyl-3-(pyridin-4-yl)-1H-pyrazol-5-yl)propanamide]",< 1000
17,"CCc1c(-c2ccncc2)n[nH]c1NC(=O)CCc1cc(F)c(C#N)c(F)c1 [Example 15, 3-(4-Cyano-3,5-difluorophenyl)-N-(4-ethyl-3-(pyridin-4-yl)-1H-pyrazol-5-yl)propanamide]",< 1000
18,"Cc1c(-c2ccncc2)n[nH]c1N(C(=O)CCc1cc(F)c(F)c(F)c1)C(=O)CCc1cc(F)c(F)c(F)c1 [Example 10, N-(4-Methyl-3-(pyridin-4-yl)-1H-pyrazol-5-yl)-3-(3,4,5-trifluorophenyl)-N-(3-(3,4,5-trifluorophenyl)propanoyl)propanamide]",< 1000
19,"Cc1ccccc1CCC(=O)Nc1[nH]nc(-c2ccncc2)c1C [Example 26, N-(4-Methyl-3-(pyridin-4-yl)-1H-pyrazol-5-yl)-3-(o-tolyl)propanamide]",1000 to 10000
20,"Cc1c(-c2ccncc2)n[nH]c1NC(=O)C(F)Cc1ccc(Cl)cc1 (racemic) [Example 18, (rac)-3-(4-chlorophenyl)-2-fluoro-N-(4-methyl-3-(pyridin-4-yl)-1H-pyrazol-5-yl)propanamide]",< 1000
21,"Cc1c(-c2ccncc2)n[nH]c1N(C(=O)CCc1ccc(Cl)cc1)C(=O)CCc1cccc(Cl)c1 [Example 4, 3-(3-Chlorophenyl)-N-(3-(4-chlorophenyl)propanoyl)-N-(4-methyl-3-(pyridin-4-yl)-1H-pyrazol-5-yl)propanamide]",< 1000

# The next lines start with the values.
row,IC50 [nM],Structure (SMILES)
1,< 1000,"O=C(CCc1cc(F)c(F)c(F)c1)Nc1[nH]nc(-c2ccncc2)c1Cl [Example 167, N-(4-Chloro-3-(pyridin-4-yl)-1H-pyrazol-5-yl)-3-(3,4,5-trifluorophenyl)propanamide]"
2,< 1000,"O=C(CCc1ccc(Cl)cc1)Nc1[nH]nc(-c2ccncc2)c1C(F)(F)F [Example 125, 3-(4-Chlorophenyl)-N-[3-(pyridin-4-yl)-4-(trifluoromethyl)-1H-pyrazol-5-yl]propanamide]"
3,1000 to 10000,"Cc1cnccc1-n1cc(NC(=O)CCc2ccc(Cl)cc2)cn1 [Example 109, 3-(4-Chlorophenyl)-N-(1-(3-methylpyridin-4-yl)-1H-pyrazol-4-yl)propanamide]"
4,< 1000,"O=C(CCc1ccc(Cl)cc1)Nc1[nH]nc(-c2ccncc2)c1CO [Example 116, 3-(4-Chlorophenyl)-N-(4-(hydroxymethyl)-3-(pyridin-4-yl)-1H-pyrazol-5-yl)propanamide]"
5,< 1000,N#Cc1ccc(CCC(=O)Nc2[nH]nc(-c3ccncc3)c2Cl)cc1F [Example 129]
6,< 1000,"O=C(NCc1cc(F)c(Cl)c(F)c1)Nc1cc(-c2ccncc2)n[nH]1 [Example 163, 1-(4-Chloro-3,5-difluorobenzyl)-3-(3-(pyridin-4-yl)-1H-pyrazol-5-yl)urea]"
7,< 1000,"Cc1c(-c2ccncc2)n[nH]c1N1CCC(c2ccc(Cl)cc2)CC1=O (stereo not drawn) [Example 138, 4-(4-Chlorophenyl)-1-(4-methyl-3-(pyridin-4-yl)-1H-pyrazol-5-yl)piperidin-2-one]"
8,< 1000,"O=C1CC(c2ccc(Cl)cc2)CC(=O)N1c1cc(-c2ccncc2)n[nH]1 (racemic) [Example 155, (rac)-4-(4-Chlorophenyl)-1-(3-(pyridin-4-yl)-1H-pyrazol-5-yl)piperidine-2,6-dione]"
9,1000 to 10000,"Cc1c(-c2ccncc2)n[nH]c1NC(=O)N[C@H](C)c1ccc(Cl)cc1 [Example 148, (R)-1-(1-(4-Chlorophenyl)ethyl)-3-(4-methyl-3-(pyridin-4-yl)-1H-pyrazol-5-yl)urea]"
10,1000 to 10000,Cn1c(-c2ccncc2)cnc1NC(=O)CCc1ccc(Cl)cc1 [Example 132]
11,< 1000,C#Cc1ccc(CCC(=O)Nc2[nH]nc(-c3ccncc3)c2C)cc1 [Example 140]
12,1000 to 10000,"O=C(CCc1ccc(Cl)cc1)Nc1cnn(-c2ccncc2)c1 [Example 89, 3-(4-Chlorophenyl)-N-(1-(pyridin-4-yl)-1H-pyrazol-4-yl)propanamide]"
13,< 1000,"Cc1c(-c2ccncc2)n[nH]c1NC(=O)NCc1ccc(F)cc1 [Example 142, 1-[(4-Fluorophenyl)methyl]-3-[4-methyl-3-(pyridin-4-yl)-1H-pyrazol-5-yl]urea]"
14,< 1000,"N[C@H](Cc1ccc(Cl)cc1)C(=O)Nc1cc(-c2ccncc2)n[nH]1 [Example 151, (R)-2-Amino-3-(4-chlorophenyl)-N-(3-(pyridin-4-yl)-1H-pyrazol-5-yl)propanamide]"
15,< 1000,"N#Cc1ccc(CCC(=O)Nc2cnn(-c3ccncc3)c2Cl)cc1F [Example 94, N-(5-Chloro-1-(pyridin-4-yl)-1H-pyrazol-4-yl)-3-(4-cyano-3-fluorophenyl)propanamide]"
